Test results from PubChem BioAssay (NCI).
Several values for one entry are separate records, joined by “and”; a condition that tells them apart may be missing. Equal values may be shown once.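 In this assay, cells in 96-well plates receive the compound at five concentrations for 48 hours. Endpoints are linearly interpolated between the surrounding concentrations. The concentration for 50% growth inhibition is given as GI50. TGI marks complete inhibition of growth.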

How the values were obtained:
Test in all cases: growth of human tumour cells (NCI), 48 h
MDA-MB-435 = test system: MDA-MB-435
HCC-2998 colon = test system: HCC-2998 colon
SF-295 CNS = test system: SF-295 CNS
A498 renal = test system: A498 renal
RPMI-8226 leukemia = test system: RPMI-8226 leukemia
SK-MEL-28 melanoma = test system: SK-MEL-28 melanoma
SF-268 CNS = test system: SF-268 CNS
BT-549 breast = test system: BT-549 breast
SK-OV-3 ovarian = test system: SK-OV-3 ovarian
SR leukemia = test system: SR leukemia
LOX IMVI melanoma = test system: LOX IMVI melanoma
HL-60(TB) leukemia = test system: HL-60(TB) leukemia
ACHN renal = test system: ACHN renal
SF-539 CNS = test system: SF-539 CNS
SNB-19 CNS = test system: SNB-19 CNS
K-562 leukemia = test system: K-562 leukemia
U251 CNS = test system: U251 CNS
SK-MEL-2 melanoma = test system: SK-MEL-2 melanoma
OVCAR-5 ovarian = test system: OVCAR-5 ovarian
OVCAR-4 ovarian = test system: OVCAR-4 ovarian
COLO 205 colon = test system: COLO 205 colon
UO-31 renal = test system: UO-31 renal
UACC-257 melanoma = test system: UACC-257 melanoma
NCI-H460 lung = test system: NCI-H460 lung
MALME-3M melanoma = test system: MALME-3M melanoma
CAKI-1 renal = test system: CAKI-1 renal
PC-3 prostate = test system: PC-3 prostate
UACC-62 melanoma = test system: UACC-62 melanoma
T-47D breast = test system: T-47D breast
EKVX NSCLC = test system: EKVX NSCLC
NCI-H23 lung = test system: NCI-H23 lung
HOP-62 NSCLC = test system: HOP-62 NSCLC
HCT-15 colon = test system: HCT-15 colon
OVCAR-3 ovarian = test system: OVCAR-3 ovarian
NCI-H522 lung = test system: NCI-H522 lung
TK-10 renal = test system: TK-10 renal
MOLT-4 leukemia = test system: MOLT-4 leukemia
KM12 colon = test system: KM12 colon
NCI-H226 lung = test system: NCI-H226 lung
HT29 colon = test system: HT29 colon
MCF7 breast = test system: MCF7 breast
M14 melanoma = test system: M14 melanoma
SW-620 colon = test system: SW-620 colon
HS 578T breast = test system: HS 578T breast
HCT-116 colon = test system: HCT-116 colon
HOP-92 NSCLC = test system: HOP-92 NSCLC
CCRF-CEM leukemia = test system: CCRF-CEM leukemia
IGROV1 ovarian = test system: IGROV1 ovarian
SN12C renal = test system: SN12C renal
786-0 renal = test system: 786-0 renal
SK-MEL-5 melanoma = test system: SK-MEL-5 melanoma
DU-145 prostate = test system: DU-145 prostate
A549 NSCLC = test system: A549 NSCLC
NCI/ADR-RES ovarian = test system: NCI/ADR-RES ovarian
RXF 393 renal = test system: RXF 393 renal
MDA-MB-231 breast = test system: MDA-MB-231 breast
OVCAR-8 ovarian = test system: OVCAR-8 ovarian

In the case of CO/N=C/C=C\C(=O)N/C=C/C[C@H]1/C=C/[C@H](O)/C=C\C=C\c2cccc(O)c2C(=O)O1, the GI50 (MDA-MB-435) was 36.8 nM and 37 nM, the TGI (MDA-MB-435) was 1960 nM and 482 nM and the GI50 (HCC-2998 colon) was 430 nM and 208 nM. The TGI (HCC-2998 colon) was 31 µM and 7.54 µM, the GI50 (SF-295 CNS) was 22.9 nM and 19.8 nM and the TGI (SF-295 CNS) was 117 nM and 84.5 nM. For the same compound, the GI50 (A498 renal) was 722 nM, the TGI (A498 renal) was 5.42 µM and the GI50 (RPMI-8226 leukemia) was 26.5 nM and 30.9 nM. The TGI (RPMI-8226 leukemia) was 6.8 µM and 2.21 µM, the GI50 (SK-MEL-28 melanoma) was 303 nM and 309 nM and the TGI (SK-MEL-28 melanoma) was 13.4 µM and 8.66 µM. The GI50 (SF-268 CNS) was 204 nM and 137 nM, the TGI (SF-268 CNS) was > 100 µM and 33.8 µM and the GI50 (BT-549 breast) was < 19.7 nM and 24.7 nM. The TGI (BT-549 breast) was 5.96 µM and 32.9 µM, the TGI (SK-OV-3 ovarian) was over 100 µM and the GI50 (SR leukemia) was under 10 nM. For the same compound, the TGI (SR leukemia) was 13.8 µM and > 100 µM, the GI50 (LOX IMVI melanoma) was under 10 nM and the TGI (LOX IMVI melanoma) was 16 nM. For the same compound, the GI50 (HL-60(TB) leukemia) was 20.8 nM and 37.3 nM, the GI50 (ACHN renal) was 39 nM and 54.2 nM and the TGI (ACHN renal) was 15.7 µM and 15.2 µM. The GI50 (SF-539 CNS) was 46 nM and 51.4 nM, the TGI (SF-539 CNS) was 4.2 µM and 1.83 µM and the GI50 (SNB-19 CNS) was 2.81 µM and 3.47 µM. For the same compound, the TGI (SNB-19 CNS) was over 100 µM, the GI50 (K-562 leukemia) was 27.5 nM and 35.8 nM and the TGI (K-562 leukemia) was over 100 µM. The GI50 (U251 CNS) was 100 nM and 28.7 nM, the TGI (U251 CNS) was 62.1 µM and 14.7 µM and the GI50 (SK-MEL-2 melanoma) was 118 nM and 138 nM. For the same compound, the TGI (SK-MEL-2 melanoma) was 1060 nM and 1760 nM, the GI50 (OVCAR-5 ovarian) was < 11 nM and 32.6 nM and the TGI (OVCAR-5 ovarian) was 14.4 µM and > 54.4 µM. The GI50 (OVCAR-4 ovarian) was 17.3 µM and 2.74 µM, the TGI (OVCAR-4 ovarian) was over 100 µM and the GI50 (COLO 205 colon) was 26.6 nM and 32.6 nM. For the same compound, the TGI (COLO 205 colon) was 16 µM and 14.1 µM, the GI50 (UO-31 renal) was 61 nM and 92.5 nM and the TGI (UO-31 renal) was 455 nM and 1230 nM. The GI50 (UACC-257 melanoma) was 24.8 nM and 49.3 nM, the TGI (UACC-257 melanoma) was 659 nM and 4170 nM and the GI50 (NCI-H460 lung) was 36.4 nM and 58.3 nM. The TGI (NCI-H460 lung) was 11.1 µM and 5.34 µM, the GI50 (MALME-3M melanoma) was 114 nM and 89.9 nM and the TGI (MALME-3M melanoma) was 5.88 µM and 10.6 µM. For the same compound, the GI50 (CAKI-1 renal) was under 10 nM, the GI50 (PC-3 prostate) was 94.6 nM and 47.7 nM and the TGI (PC-3 prostate) was 81.4 µM and > 54.9 µM. For the same compound, the GI50 (UACC-62 melanoma) was < 14.8 nM and 22 nM, the TGI (UACC-62 melanoma) was 79.5 nM and 60.5 nM and the GI50 (T-47D breast) was < 10 nM and 27.3 nM. The TGI (T-47D breast) was 64.7 µM and > 71.7 µM, the GI50 (EKVX NSCLC) was 189 nM and 467 nM and the TGI (EKVX NSCLC) was over 100 µM. For the same compound, the GI50 (NCI-H23 lung) was 2650 nM and 463 nM, the TGI (NCI-H23 lung) was > 100 µM and 36.1 µM and the GI50 (HOP-62 NSCLC) was 266 nM and 65.9 nM. The GI50 (HCT-15 colon) was 62.4 nM and 44.7 nM, the TGI (HCT-15 colon) was 9.7 µM and 7.34 µM and the GI50 (OVCAR-3 ovarian) was 457 nM and 653 nM. For the same compound, the TGI (OVCAR-3 ovarian) was 23.8 µM and 27.3 µM, the GI50 (NCI-H522 lung) was 17.6 nM and 31.1 nM and the TGI (NCI-H522 lung) was 14.3 µM and 7.12 µM. For the same compound, the TGI (TK-10 renal) was 45.1 µM and > 100 µM, the GI50 (MOLT-4 leukemia) was 43.9 nM and 79 nM and the TGI (MOLT-4 leukemia) was 14 µM and 23.5 µM. The GI50 (KM12 colon) was 40.7 nM and 52 nM, the TGI (KM12 colon) was 17.2 µM and 15.1 µM and the GI50 (NCI-H226 lung) was 829 nM and 1310 nM. For the same compound, the TGI (NCI-H226 lung) was 13.3 µM and 25.8 µM, the GI50 (HT29 colon) was < 10 nM and 39.5 nM and the TGI (HT29 colon) was 11.2 µM and > 33.7 µM. For the same compound, the GI50 (MCF7 breast) was 99.7 nM and 58.1 nM, the TGI (MCF7 breast) was > 100 µM and 26.7 µM and the GI50 (M14 melanoma) was < 10 nM and 15.2 nM. The TGI (M14 melanoma) was 119 nM and 136 nM, the GI50 (SW-620 colon) was 43.3 nM and 62.8 nM and the TGI (SW-620 colon) was 12.4 µM and 11.3 µM. For the same compound, the GI50 (HS 578T breast) was 454 nM and 199 nM, the TGI (HS 578T breast) was over 100 µM and the GI50 (HCT-116 colon) was < 10 nM and 20.7 nM. The TGI (HCT-116 colon) was 12.8 µM and 12.9 µM, the GI50 (HOP-92 NSCLC) was < 10 nM and 19 nM and the TGI (HOP-92 NSCLC) was 74.5 nM and 492 nM. The GI50 (CCRF-CEM leukemia) was 62.1 nM and 62.2 nM, the TGI (CCRF-CEM leukemia) was over 77 µM and the GI50 (IGROV1 ovarian) was < 10 nM and 12.9 nM. For the same compound, the TGI (IGROV1 ovarian) was > 49 µM and 30.9 µM, the GI50 (SN12C renal) was < 17.6 nM and 16.5 nM and the TGI (SN12C renal) was over 72.9 µM. For the same compound, the GI50 (786-0 renal) was 54 nM and 125 nM, the TGI (786-0 renal) was 15.6 µM and 4.03 µM and the GI50 (SK-MEL-5 melanoma) was under 10 nM. For the same compound, the TGI (SK-MEL-5 melanoma) was < 11.3 nM and 20.4 nM, the GI50 (DU-145 prostate) was 81.6 nM and 41.3 nM and the TGI (DU-145 prostate) was > 54 µM and 22.9 µM. The GI50 (A549 NSCLC) was 111 nM and 82.2 nM, the TGI (A549 NSCLC) was over 100 µM and the GI50 (NCI/ADR-RES ovarian) was 139 nM and 77.1 nM. The TGI (NCI/ADR-RES ovarian) was over 100 µM, the GI50 (RXF 393 renal) was 931 nM and 108 nM and the TGI (RXF 393 renal) was 34.5 µM and 12.9 µM. The GI50 (MDA-MB-231 breast) was under 10 nM, the TGI (MDA-MB-231 breast) was 6.64 µM and the GI50 (OVCAR-8 ovarian) was 19.1 nM and 33 nM. It also gave a TGI (OVCAR-8 ovarian) of over 100 µM.
